Where two headings read alike, the source gives them in different places.
What was measured:
mGlu8 = molecular target: T1, mGlu8 (Rattus norvegicus, UniProt P70579); type: cell-based
T1 construct: expressed in transfected cells; host or cells: HEK293 (transient, electroporation)
Excerpt: (§1) These receptors were transiently expressed in HEK-293 cells as previously described. Since group III mGlu receptors are not naturally coupled to phospholipase-C but rather inhibit adenylyl cyclase, receptors were co-transfected with a chimeric G-protein alpha subunit which is recognized by these receptors but effectively activates the phospholipase-C pathway. Thus, the functional assay consisted in measuring the total inositol phosphate production resulting from receptor activation (ref. 10, 11).
(§2) Cell culture and transfection. Pharmacological experiments were carried out using HEK293 cells. Cells were cultured in Dulbecco's modified Eagle's medium supplemented with 10% foetal calf serum (FCS) and antibiotics (Penicillin and Streptomycin, 100 U/mL final).
(§3) Cells were transiently transfected with rat clones of group-III mGlu receptors (mGlu4, mGlu6, mGlu7 and mGlu8) by electroporation as described elsewhere (ref. 6) and plated in 96-well microplates. The high affinity glutamate transporter EAAC1 was also co-transfected with the receptor in order to avoid any influence of glutamate released by the cells in the assay medium. Since group-III mGluRs activates naturally Gi/o-proteins which modulate the adenylyl-cyclase pathway, these receptors were co-transfected with a chimeric G-protein which is recognized by these receptors but couples to the phospholipase-C pathway, thus leading to inositol phosphate (IP) production following receptor activation (ref. 7). Receptor activity was then determined by measurement of the IP production.
(§4) Functional assay. Inositol phosphate determination experiments in 96-well microplates were performed as already described (ref. 15). Briefly, 6 h following transfection, cell medium was removed and replaced by fresh medium devoid of glutamate, not complemented with FCS, and that contained ^3H-myoinositol. Cells were incubated overnight in this medium. The following day, cells were rinsed and ambient glutamate degraded by incubation in presence of GPT. Cells were stimulated by agonist for 30 min then the medium was removed and cells incubated for 1 h with cold 0.1 M formic acid which induced cell lysis. The ^3H-IP produced following receptor stimulation were recovered by ion exchange chromatography using a Dowex resin (Biorad). […] All points are realized in triplicate.

mGlu4 = molecular target: T2, mGlu4 (Rattus norvegicus, UniProt P31423); type: cell-based
T2 construct: expressed in transfected cells; host or cells: HEK293 (transient, electroporation)
Excerpt: as §1, §2, §3, §4

mGlu6 = molecular target: T3, mGlu6 (Rattus norvegicus, UniProt P35349); test: Inositol phosphate production in transfected HEK293 cells, mGlu6; type: cell-based
T3 construct: expressed in transfected cells; host or cells: HEK293 (transient, electroporation)
Excerpt: as §1, §2
(§5) Cells were transiently transfected with rat clones of group-III mGlu receptors (mGlu4, mGlu6, mGlu7 and mGlu8) by electroporation as described elsewhere (ref. 6) and plated in 96-well microplates. The high affinity glutamate transporter EAAC1 was also co-transfected with the receptor in order to avoid any influence of glutamate released by the cells in the assay medium. […] Receptor activity was then determined by measurement of the IP production. […]

[1] = system: group I and II mGlu receptors; test: Selectivity versus group I and II mGlu receptors; type: cell-based
mGlu1/5 receptors = test: Effect at mGlu1/5 receptors; type: cell-based
mGlu4R = mGlu4R (Homo sapiens, UniProt Q14833); conditions: read-out: EC50 as mGlu4R agonist; background statement; cited from earlier work
mGlu7 = molecular target: T4, mGlu7 (Rattus norvegicus, UniProt P35400); test: Inositol phosphate production in transfected HEK293 cells, mGlu7; type: cell-based
T4 construct: expressed in transfected cells; host or cells: HEK293 (transient, electroporation)
Excerpt: as §1, §2, §5

[2] = 31P NMR chemical shift versus pH, 27° C.
Experimental: In order to compare them, the pKa values of these amino acids were evaluated. […] Indicated pKa3 values were calculated by non-linear regression analysis using GraphPad Prism program. In addition, the ^31P NMR chemical shifts of 1 and 4 are sensitive to the ionization state, thus titration curves may be obtained from their pH dependence (ref. 7-9) (FIG. 1B). […] The pKa1 and pKa2 values are too close to be determined from the titration curves, however pKa3 and pKa4 are easily measured. […]
Each ^31P NMR spectrum was acquired at 27° C. with external H3PO4 (95%) reference at 0 ppm (sealed capillary). […] A total of 27 spectra (1) or 23 spectra (4) were recorded over a pH range of 0.50-12.50 (1) or 0.51-12.56 (4). The P NMR chemical shifts of the dianionic and monoanionic forms of the (thio)phosphonate groups were plotted against measured pH. All pKa values were calculated by non-linear regression analysis using the GraphPad Prism program (GraphPad Software Inc., San Diego Calif.) and the equation pH=pKa−log[(δa−δ)/(δ−δb)] where δ is the ^31P NMR chemical shift at varying pH, δa and δb the ^31P NMR chemical shifts with titrating group in fully acidic or basic form respectively.

mGlu2 receptor = mGlu2 receptor (Homo sapiens, UniProt Q14416); conditions: described in the literature; cited from earlier work
group III mGlu receptors [3] = conditions: cited from earlier work
group III mGlu receptors [4] = test: Agonist activity across all group III mGlu receptor subtypes (summary); type: cell-based, rat
Excerpt: as §1, §3
Functional assay. […]

[5] = agonist activity, IP production, HEK-293, mean ± SEM (n)

T2 sequence (P31423 33-912): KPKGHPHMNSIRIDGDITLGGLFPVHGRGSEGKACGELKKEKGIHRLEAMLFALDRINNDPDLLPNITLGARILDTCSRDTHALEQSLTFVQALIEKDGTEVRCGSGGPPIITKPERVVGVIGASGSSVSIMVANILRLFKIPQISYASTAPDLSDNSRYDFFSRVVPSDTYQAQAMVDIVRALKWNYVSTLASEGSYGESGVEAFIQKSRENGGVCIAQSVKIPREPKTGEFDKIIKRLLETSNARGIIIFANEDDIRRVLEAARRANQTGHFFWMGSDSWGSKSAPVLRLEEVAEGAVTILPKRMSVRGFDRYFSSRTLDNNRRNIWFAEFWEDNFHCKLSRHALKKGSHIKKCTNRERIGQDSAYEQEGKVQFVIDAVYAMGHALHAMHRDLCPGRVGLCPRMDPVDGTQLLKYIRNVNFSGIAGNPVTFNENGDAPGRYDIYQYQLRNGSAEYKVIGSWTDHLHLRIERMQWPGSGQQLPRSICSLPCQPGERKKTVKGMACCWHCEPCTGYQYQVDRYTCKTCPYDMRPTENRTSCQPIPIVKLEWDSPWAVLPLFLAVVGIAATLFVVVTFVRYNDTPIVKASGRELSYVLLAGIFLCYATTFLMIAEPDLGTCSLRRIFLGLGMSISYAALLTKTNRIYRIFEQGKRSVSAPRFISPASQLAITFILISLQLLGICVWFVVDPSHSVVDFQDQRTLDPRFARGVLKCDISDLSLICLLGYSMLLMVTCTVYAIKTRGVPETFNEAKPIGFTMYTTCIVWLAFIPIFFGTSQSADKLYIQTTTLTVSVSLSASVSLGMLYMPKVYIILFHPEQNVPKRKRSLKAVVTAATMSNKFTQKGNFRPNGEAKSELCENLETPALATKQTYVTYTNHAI
T3 sequence (P35349 24-871): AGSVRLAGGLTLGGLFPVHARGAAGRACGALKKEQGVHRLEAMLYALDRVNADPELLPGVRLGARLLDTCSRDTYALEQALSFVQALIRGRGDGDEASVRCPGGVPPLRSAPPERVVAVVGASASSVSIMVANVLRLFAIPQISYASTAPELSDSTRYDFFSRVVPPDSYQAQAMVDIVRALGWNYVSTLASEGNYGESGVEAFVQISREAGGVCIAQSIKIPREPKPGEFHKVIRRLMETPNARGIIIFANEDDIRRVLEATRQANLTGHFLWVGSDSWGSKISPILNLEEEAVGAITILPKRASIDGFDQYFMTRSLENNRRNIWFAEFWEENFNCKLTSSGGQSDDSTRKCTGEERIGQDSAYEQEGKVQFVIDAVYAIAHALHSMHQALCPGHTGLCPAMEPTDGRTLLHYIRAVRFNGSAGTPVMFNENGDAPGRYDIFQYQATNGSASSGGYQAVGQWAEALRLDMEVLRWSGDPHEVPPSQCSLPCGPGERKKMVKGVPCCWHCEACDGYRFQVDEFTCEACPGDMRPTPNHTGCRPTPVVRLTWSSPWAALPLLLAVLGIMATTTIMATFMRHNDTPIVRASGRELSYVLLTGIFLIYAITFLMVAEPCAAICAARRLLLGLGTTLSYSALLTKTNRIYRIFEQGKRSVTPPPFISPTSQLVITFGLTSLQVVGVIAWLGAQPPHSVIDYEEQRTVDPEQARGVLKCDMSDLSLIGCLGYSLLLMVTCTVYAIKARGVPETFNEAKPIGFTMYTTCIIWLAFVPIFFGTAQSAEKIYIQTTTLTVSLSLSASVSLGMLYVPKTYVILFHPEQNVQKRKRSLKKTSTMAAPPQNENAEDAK
T1 sequence (P70579 34-908): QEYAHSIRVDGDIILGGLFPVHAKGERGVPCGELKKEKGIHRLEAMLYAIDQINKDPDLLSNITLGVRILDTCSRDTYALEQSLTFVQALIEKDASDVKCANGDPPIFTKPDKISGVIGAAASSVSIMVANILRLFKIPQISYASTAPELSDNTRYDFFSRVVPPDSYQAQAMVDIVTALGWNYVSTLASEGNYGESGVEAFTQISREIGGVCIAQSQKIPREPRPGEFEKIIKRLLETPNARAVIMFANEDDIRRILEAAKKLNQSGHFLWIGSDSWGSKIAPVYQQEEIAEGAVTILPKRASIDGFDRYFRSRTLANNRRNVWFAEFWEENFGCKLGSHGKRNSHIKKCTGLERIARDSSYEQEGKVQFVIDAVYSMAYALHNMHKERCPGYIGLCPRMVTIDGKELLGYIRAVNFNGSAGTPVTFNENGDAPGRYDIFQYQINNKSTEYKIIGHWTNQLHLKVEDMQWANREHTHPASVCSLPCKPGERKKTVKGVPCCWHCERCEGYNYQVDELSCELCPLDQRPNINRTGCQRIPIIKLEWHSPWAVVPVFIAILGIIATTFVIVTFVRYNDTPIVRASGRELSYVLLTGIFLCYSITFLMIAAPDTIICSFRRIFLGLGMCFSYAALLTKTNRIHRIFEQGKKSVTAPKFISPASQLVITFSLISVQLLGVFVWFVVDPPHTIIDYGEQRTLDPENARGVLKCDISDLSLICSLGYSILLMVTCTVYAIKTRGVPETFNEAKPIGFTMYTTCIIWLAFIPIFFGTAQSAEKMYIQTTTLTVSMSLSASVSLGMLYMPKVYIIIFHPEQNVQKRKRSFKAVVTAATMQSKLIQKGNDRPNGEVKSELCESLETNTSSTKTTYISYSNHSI
T4 sequence (P35400 35-915): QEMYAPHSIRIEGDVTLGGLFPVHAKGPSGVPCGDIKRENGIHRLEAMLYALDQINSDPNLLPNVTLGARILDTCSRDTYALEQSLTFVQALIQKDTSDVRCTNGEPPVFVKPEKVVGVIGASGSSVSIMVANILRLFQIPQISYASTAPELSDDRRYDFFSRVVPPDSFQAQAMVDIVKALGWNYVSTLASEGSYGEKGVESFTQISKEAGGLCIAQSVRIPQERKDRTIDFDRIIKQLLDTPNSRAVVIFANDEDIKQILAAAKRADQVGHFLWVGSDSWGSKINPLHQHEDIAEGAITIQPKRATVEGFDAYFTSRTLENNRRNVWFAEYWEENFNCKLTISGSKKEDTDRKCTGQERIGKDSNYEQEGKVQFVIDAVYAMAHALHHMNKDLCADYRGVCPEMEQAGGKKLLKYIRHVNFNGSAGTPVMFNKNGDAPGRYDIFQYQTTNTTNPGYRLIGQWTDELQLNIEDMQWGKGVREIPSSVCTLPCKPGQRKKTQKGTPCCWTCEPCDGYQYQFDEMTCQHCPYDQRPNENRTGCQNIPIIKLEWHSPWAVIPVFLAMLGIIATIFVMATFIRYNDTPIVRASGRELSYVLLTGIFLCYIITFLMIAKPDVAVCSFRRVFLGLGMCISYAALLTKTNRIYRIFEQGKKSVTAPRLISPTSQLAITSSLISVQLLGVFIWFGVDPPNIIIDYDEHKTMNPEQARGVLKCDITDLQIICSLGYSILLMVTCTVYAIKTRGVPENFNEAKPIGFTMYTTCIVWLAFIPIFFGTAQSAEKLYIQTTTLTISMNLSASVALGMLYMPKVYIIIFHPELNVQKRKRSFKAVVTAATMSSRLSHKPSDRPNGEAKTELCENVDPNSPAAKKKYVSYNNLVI
mGlu4R, sequence (Q14833 33-912): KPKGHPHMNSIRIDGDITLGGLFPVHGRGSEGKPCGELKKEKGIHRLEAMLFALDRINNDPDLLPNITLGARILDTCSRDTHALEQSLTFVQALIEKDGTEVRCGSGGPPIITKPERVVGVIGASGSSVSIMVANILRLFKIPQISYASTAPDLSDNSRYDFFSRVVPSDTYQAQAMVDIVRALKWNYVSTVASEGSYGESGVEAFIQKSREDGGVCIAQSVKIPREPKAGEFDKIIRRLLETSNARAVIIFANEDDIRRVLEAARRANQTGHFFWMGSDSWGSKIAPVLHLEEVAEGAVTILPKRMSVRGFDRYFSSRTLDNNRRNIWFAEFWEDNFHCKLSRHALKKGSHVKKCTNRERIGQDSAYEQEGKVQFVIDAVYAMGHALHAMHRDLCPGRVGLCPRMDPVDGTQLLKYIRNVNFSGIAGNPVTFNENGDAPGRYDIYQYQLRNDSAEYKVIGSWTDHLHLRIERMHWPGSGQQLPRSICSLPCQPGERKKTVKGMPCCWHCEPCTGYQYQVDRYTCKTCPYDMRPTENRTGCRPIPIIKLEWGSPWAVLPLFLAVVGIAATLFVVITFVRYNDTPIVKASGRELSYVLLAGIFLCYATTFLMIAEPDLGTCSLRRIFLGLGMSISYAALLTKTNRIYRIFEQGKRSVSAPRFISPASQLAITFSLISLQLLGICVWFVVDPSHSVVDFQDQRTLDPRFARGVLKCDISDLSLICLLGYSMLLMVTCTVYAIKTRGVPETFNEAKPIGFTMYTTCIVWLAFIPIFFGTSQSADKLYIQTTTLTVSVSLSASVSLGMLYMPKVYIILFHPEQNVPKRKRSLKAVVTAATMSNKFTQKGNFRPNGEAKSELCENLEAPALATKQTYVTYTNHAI

Compound | EC50 (mGlu8; [5]) | EC50 (mGlu4; [5]) | EC50 (mGlu6; [5]) | agonist or antagonist activity on group I and II mGlu receptors ([1]; at 100 μM) | effect at mGlu1/5 receptors (mGlu1/5 receptors) | EC50 (mGlu4R) | EC50 (mGlu7; [5]) | experimental pKa3 ([2]; second acidity of (thio)phosphonate) | experimental pKa4 ([2]; α-ammonium group) | mGlu2 receptor antagonist activity (mGlu2 receptor) | activity compared to glutamate at group III mGlu receptors (group III mGlu receptors [3]) | EC50 (mGlu8) | EC50 (mGlu4) | EC50 (mGlu6) | agonist or antagonist activity on group I and II mGlu receptors [1] | selectivity among group III mGlu receptor subtypes (group III mGlu receptors [4]) | activity relative to L-AP4 (1) (group III mGlu receptors [4]; on all subtypes, Student's paired T test P<0.05) | EC50 (mGlu7)
N[C@@H](CCP(=O)(O)O)C(=O)O [L-AP4, L(+)-2-Amino-4-phosphonobutyric Acid] | 128 ± 19 nM | 80 ± 17 nM | 2080 ± 380 nM | no agonist or antagonist activity | no effect | 320 nM | 440000 ± 120000 nM | 6.88 | 9.90 | modest mGlu2 receptor antagonist | – | – | – | – | – | – | – | –
N[C@@H](CCS(=O)(=O)O)C(=O)O [L-homocysteic acid] | – | – | – | – | – | – | – | – | – | – | no enhanced activity compared to glutamate | – | – | – | – | – | – | –
N[C@@H](CCP(O)(O)=S)C(=O)O [L-thioAP4, L(+)-2-Amino-4-thiophosphonobutyric acid] | – | – | – | – | no effect | – | – | – | – | – | – | 54 nM | 39 nM | 730 nM | no agonist or antagonist activity | not subtype selective | about two fold | 197000 nM
